The source of these data is ChEMBL document CHEMBL1201862, “PubChem BioAssay data set” (2004).

In general, EC50 refers to the concentration giving half of the maximal effect. Broadly, the AC50 is the midpoint of the concentration-response curve, whichever way the signal moves.

Activity calls are given as the source filed them.

The target in experiment [1] is T1, Polyadenylate-binding protein 1 (Homo sapiens, UniProt P11940). In words: PABP1 MLLE–PAM2 interaction inhibitors, dose response, miRNA deadenylation inhibitor project, biochemical, fluorescence polarization, Cy5-PAM2 peptide, secondary (AID 602260). It is filed as functional. The conditions noted are these: read-out: IC50_Mean.
T1 sequence (P11940 whole entry): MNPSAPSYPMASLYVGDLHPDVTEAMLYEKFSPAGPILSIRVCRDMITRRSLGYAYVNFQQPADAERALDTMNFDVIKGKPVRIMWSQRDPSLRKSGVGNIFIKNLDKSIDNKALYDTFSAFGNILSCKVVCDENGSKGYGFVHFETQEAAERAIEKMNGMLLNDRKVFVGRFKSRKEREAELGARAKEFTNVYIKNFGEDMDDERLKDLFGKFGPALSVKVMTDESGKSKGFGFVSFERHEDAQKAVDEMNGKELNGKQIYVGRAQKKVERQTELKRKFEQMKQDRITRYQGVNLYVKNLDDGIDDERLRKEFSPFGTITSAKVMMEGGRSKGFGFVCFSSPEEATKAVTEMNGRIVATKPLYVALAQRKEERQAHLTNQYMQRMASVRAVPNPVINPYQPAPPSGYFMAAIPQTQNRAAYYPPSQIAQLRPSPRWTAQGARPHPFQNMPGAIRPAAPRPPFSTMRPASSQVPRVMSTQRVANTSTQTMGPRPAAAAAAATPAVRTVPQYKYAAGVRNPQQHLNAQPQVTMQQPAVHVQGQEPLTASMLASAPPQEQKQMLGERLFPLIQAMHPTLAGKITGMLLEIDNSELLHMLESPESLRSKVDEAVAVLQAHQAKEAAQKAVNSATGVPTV
Experiment [2] deals with T1, Polyadenylate-binding protein 1. The experiment is described as follows: PABP1 MLLE–PAM2 binding inhibitor potency, dose response, biochemical, fluorescence polarization, FITC-PAM2 peptide (AID 602259). It is filed as functional. The conditions noted are these: read-out: IC50_Mean. (Fluorescence polarisation rises when a labelled molecule tumbles more slowly, as on binding a larger partner.)

The target in another experiment is T2, Protein RecA (Mycobacterium tuberculosis, UniProt P9WHJ3).
T2 sequence (P9WHJ3 whole entry): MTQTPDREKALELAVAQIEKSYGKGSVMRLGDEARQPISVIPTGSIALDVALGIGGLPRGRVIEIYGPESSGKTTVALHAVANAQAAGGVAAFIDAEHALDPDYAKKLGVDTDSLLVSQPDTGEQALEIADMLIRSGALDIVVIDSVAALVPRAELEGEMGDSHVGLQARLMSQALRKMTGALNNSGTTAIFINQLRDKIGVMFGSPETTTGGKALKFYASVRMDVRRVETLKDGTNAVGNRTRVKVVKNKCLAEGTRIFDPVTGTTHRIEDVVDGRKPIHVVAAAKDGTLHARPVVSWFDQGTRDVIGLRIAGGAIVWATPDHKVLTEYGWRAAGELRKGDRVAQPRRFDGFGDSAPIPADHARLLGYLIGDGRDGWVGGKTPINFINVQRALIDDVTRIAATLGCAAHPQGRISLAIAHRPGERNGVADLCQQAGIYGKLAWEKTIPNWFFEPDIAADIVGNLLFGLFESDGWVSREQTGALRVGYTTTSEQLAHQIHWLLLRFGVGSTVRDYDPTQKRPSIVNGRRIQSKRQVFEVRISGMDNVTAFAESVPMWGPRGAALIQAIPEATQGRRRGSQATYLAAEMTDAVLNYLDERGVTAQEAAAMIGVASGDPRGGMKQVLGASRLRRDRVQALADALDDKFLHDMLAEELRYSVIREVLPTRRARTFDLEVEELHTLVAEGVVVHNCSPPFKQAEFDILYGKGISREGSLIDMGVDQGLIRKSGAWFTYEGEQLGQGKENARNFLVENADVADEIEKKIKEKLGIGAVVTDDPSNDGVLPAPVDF
The experiment is described as follows: Fluorescence Cell-Free Homogeneous Dose Retest to Identify Inhibitors of RecA-Intein Splicing Activity. [Related pubchem assays (depositor defined):AID2097, AID2223, AID489010, AID492950]. The format is functional.

For experiment [3], the target named is T3, Replicative DNA helicase DnaB (Mycobacterium tuberculosis, UniProt P9WMR3).
T3 sequence (P9WMR3 whole entry): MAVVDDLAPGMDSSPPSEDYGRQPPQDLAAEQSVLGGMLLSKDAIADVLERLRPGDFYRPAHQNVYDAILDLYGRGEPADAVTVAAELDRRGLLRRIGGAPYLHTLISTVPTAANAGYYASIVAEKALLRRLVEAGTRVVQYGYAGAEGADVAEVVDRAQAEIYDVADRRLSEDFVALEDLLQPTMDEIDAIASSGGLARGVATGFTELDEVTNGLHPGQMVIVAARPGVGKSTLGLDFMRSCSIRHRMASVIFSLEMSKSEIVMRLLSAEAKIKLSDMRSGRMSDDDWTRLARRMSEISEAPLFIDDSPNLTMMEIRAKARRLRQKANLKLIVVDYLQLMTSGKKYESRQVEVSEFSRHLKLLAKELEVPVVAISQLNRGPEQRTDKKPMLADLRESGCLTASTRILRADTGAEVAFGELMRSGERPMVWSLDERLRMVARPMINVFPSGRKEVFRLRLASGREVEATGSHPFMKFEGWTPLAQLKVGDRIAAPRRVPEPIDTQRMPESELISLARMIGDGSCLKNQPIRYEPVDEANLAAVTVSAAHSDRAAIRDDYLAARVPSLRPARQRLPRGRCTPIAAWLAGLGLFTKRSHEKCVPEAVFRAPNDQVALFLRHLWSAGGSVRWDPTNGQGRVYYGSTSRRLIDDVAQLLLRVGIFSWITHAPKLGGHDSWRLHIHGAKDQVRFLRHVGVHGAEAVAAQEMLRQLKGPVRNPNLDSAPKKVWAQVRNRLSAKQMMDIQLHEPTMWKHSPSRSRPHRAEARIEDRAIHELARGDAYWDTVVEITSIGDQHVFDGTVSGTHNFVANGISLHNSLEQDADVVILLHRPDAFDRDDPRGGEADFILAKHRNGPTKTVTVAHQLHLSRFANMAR
The experiment is described as follows: DnaB intein splicing inhibitors, dose response, biochemical, cell-free fluorescence (AID 449749). The format is functional.

The target in a further experiment is T4, Protein skinhead-1 (Caenorhabditis elegans, UniProt P34707).
T4 sequence (P34707 whole entry): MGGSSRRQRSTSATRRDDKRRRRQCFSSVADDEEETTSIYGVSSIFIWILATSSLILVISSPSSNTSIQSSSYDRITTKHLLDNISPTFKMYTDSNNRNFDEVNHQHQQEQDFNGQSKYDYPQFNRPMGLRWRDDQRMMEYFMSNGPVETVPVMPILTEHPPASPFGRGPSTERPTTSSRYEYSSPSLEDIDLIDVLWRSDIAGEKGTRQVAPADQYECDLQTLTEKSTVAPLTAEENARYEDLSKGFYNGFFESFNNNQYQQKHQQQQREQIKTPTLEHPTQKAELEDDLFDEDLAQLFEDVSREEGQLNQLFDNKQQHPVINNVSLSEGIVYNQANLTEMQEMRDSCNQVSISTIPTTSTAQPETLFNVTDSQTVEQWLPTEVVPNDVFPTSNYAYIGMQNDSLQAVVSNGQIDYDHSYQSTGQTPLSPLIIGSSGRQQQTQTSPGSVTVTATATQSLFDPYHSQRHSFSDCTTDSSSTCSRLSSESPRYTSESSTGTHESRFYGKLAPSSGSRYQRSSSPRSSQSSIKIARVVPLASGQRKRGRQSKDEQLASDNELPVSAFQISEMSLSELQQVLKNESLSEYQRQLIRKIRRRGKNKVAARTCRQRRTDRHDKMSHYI
The format is functional.

The target of experiment [4] is T5, Heat shock factor protein 1 (Mus musculus, UniProt P38532).
T5 sequence (P38532 whole entry): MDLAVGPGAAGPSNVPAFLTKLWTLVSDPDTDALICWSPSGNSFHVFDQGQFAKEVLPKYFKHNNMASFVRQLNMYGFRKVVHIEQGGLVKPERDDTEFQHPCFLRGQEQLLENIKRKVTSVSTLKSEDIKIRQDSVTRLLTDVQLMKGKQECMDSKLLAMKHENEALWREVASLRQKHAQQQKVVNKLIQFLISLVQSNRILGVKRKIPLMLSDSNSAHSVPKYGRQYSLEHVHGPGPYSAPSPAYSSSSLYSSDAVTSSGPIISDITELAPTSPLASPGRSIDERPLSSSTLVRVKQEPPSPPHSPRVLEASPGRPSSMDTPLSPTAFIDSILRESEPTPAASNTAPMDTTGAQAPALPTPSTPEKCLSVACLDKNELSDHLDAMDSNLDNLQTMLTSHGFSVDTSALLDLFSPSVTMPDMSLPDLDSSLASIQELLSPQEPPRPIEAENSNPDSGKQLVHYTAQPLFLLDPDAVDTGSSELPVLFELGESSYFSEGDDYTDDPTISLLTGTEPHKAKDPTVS
In words: inhibition of MG132-induced HSE-luciferase signal, confirmation, cell-based, NIH3T3, luminescence, dose retest (AID 2382).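 Note: NIH3T3 fibroblasts with HSF1-driven luciferase reporter stressed by proteasome inhibitor MG132; luminescence from HSF1-driven luciferase expression after 8 hours of MG132 stress.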 The format is functional.

Experiment [5] has as its target T6, Zinc finger protein mex-5 (Caenorhabditis elegans, UniProt Q9XUB2).
T6 sequence (Q9XUB2 whole entry): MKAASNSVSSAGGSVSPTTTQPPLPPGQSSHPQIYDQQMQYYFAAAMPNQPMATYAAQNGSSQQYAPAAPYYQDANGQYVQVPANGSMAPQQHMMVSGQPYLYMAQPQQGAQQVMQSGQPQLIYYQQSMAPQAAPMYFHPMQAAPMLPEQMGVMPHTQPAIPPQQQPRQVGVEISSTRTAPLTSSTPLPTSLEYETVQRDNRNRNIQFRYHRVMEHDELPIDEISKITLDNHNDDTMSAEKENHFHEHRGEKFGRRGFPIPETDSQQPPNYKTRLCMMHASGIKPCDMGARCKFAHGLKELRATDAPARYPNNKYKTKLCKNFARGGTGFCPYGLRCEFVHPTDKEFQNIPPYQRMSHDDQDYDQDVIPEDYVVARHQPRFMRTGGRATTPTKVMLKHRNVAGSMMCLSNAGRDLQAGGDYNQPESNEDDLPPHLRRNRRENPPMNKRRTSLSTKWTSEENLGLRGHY
In words: MEX-5/TCR-2 RNA interaction inhibitors, dose response, biochemical, C. elegans, fluorescence polarization (AID 1960).

Experiment [6] concerns the target T7, RNA-binding protein pos-1 (Caenorhabditis elegans, UniProt G5EF15).
T7 sequence (G5EF15 whole entry): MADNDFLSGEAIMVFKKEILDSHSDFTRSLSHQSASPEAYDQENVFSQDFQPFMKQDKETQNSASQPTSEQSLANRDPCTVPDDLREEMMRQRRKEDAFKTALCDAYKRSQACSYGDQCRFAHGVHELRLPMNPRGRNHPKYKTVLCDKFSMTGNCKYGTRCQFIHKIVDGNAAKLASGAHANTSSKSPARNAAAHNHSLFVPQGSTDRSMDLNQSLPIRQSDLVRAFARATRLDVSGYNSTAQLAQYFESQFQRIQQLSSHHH
In words: inhibitors of POS-1/mex-3 RNA binding, dose response, biochemical, fluorescence polarization (AID 1964).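 Note: purified POS-1 fused to maltose binding protein made in E. coli; potency of compounds blocking POS-1 binding to fluorescent RNA.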

For the compound `Cc1nc(NS(=O)(=O)c2ccccc2)sc1NC(=O)OC(C)C`, the IC50 in experiment [1] and in experiment [2] was > 66 µM (inactive) throughout.

Take `CC1(C)CC2=C(CO1)C(S)=NC(c1ccccc1)N2CC1CCCO1` (stereo unspecified): the IC50 in experiment [1] and in experiment [2] was > 66 µM (inactive) in each case.

On to `N#CC1=C(N)Oc2[nH]nc(-c3cccs3)c2C1c1cccs1` (stereo unspecified), for which the EC50 at Protein RecA is 2.02 µM (active). In addition, the AC50 in experiment [3] is 2.63 µM (active).

For `COCC(=O)NCc1ccc2c(c1)cc(C)n2C`, at Protein skinhead-1, the IC50 is > 100 µM (inactive).

Turning to `Cn1c(=O)c2c(O)cc(N)nc2n(C)c1=O`, the IC50 is > 66 µM (inactive) in experiment [1] and 56.2 µM (inactive) in experiment [2].

Regarding `COCCOC(=O)C1=C(C)N=C2SCCC(=O)N2C1c1ccc(OC(=O)c2ccco2)cc1` (stereo unspecified), the EC50 at Protein RecA was 14 µM (active). Also, the AC50 in experiment [3] was 19.8 µM (active).

Consider `Cn1nnnc1SCC(=O)N1CCN(c2cccc(Cl)c2)CC1`, for which the IC50 on Protein skinhead-1 is > 100 µM (inactive).

Consider `CC(=O)Nc1ccc(S(=O)(=O)NCC(=O)N2CCN(S(=O)(=O)c3cccs3)CC2)cc1`, for which the IC50 in experiment [1] and in experiment [2] was > 66 µM (inactive) each time.

As for `CCN(CC)C(=O)Oc1ccc(Br)c2ccccc12`, the IC50 at Protein skinhead-1 is > 100 µM (inactive).

In the case of `O=C(Nc1ccc(Cl)cc1)C1c2cccc[n+]2CC(=O)N1Cc1ccc2c(c1)OCO2` (stereo unspecified), the EC50 on Protein RecA was 13.3 µM (active). Also, the AC50 in experiment [3] was > 380 µM (inactive).

As to `O=C(Nc1ccc(-c2nnc(-c3ccccc3)o2)cc1)c1ccc(Br)o1`, at Protein skinhead-1, the IC50 is 76.3 µM (inactive).

Turning to `COc1cc(NC(S)=Nc2ccc(N(C)C(C)=O)cc2)cc(OC)c1`, the IC50 in experiment [1] and in experiment [2] was > 66 µM (inactive) each time.

As for `CC1=NN(c2ccccc2)C(=O)/C1=C\c1c[nH]nc1-c1ccccc1`, the EC50 at Protein RecA was 2.54 µM (active). Also, in experiment [3], the AC50 is 4.1 µM (active).

In the case of `COc1ccc(-c2c(=O)n(OC)c3ccccc3[n+]2[O-])cc1OC`, the EC50 at Protein RecA is > 380 µM (inactive). Further, in experiment [3], the AC50 is > 380 µM (inactive).

Regarding `COc1ccc(OCCCC(=O)OCC(=O)Nc2ncc(Cl)cc2Cl)cc1`, the IC50 in experiment [1] is > 66 µM (inactive); in experiment [2], 30.3 µM (inactive).

As to `COCc1n[nH]c2c1C1(CCSCC1)C(C#N)=C(N)O2`, the concentration for a half-maximal effect (EC50) on Protein RecA was 2.26 µM (active); in experiment [4] it was > 195 µM (not active). In experiment [3], the AC50 is 18.5 µM (active).

Consider `CCCCC1OC23CCCCC2C(C#N)(C(=N)O3)C1(C#N)C#N` (stereo unspecified), for which the IC50 in experiment [1] and in experiment [2] was > 66 µM (inactive) in each case.

As for `Cc1[nH]nc2c1C1(CCC(c3ccccc3)CC1)C(C#N)=C(N)O2` (stereo unspecified), the EC50 at Protein RecA was 1.51 µM (active). Besides, the AC50 in experiment [3] was 5.82 µM (active).

Take `COc1cc(C2C(C#N)=C(N)Oc3c2c(-c2ccccc2)nn3-c2ccccc2)cc(OC)c1OC` (stereo unspecified): the EC50 on Protein RecA is 27.9 µM (active). For the same compound, the AC50 in experiment [3] is 26.8 µM (active).

Take `COc1ccc(C(=O)NC(=S)NC2CCSC2=O)cc1` (stereo unspecified): the IC50 in experiment [1] and in experiment [2] was > 66 µM (inactive) each time.

As to `COc1ccc(NC(=O)C2Cc3ccccc3CN2C(=O)c2ccccc2)cn1` (stereo unspecified), the results for the EC50 in experiment [5] and in experiment [6] were > 300 µM (inconclusive) and 25.1 µM (active), respectively. Also, the IC50 in experiment [1] is > 66 µM (inactive); in experiment [2], 13.1 µM (active).

Take `C(=C\c1nc(-c2ccncc2)no1)/c1ccccc1`: on Protein skinhead-1, the IC50 is 12.4 µM (active).

Take `CCCn1c(=C(C#N)C#N)s/c(=C2\C=Cc3ccccc3N2CC)c1=O`: the IC50 in experiment [1] and in experiment [2] was > 66 µM (inactive) each time.

Consider `S=C(c1ccc(Cl)cc1)N1CCOCC1` [(4-CHLOROPHENYL)(MORPHOLINO)METHANETHIONE], for which the IC50 in experiment [1] and in experiment [2] was > 66 µM (inactive) each time.
